According to PubChem BioAssay AID248 (DTP/NCI, 2004):
Inconclusive results and toxic doses are left out. No stated cut-off is given here; in the data, active means T/C of 150% or more; inactive means T/C below 125%.

Tested on: L1210 leukemia ip in BDF1 mice, survival T/C
Experiment: NCI In Vivo Anticancer Drug Screen. Data for tumor model L1210 Leukemia (intraperitoneal) in B6D2F1 (BDF1) mice
Settings: endpoint: mean survival time, higher = longer survival
Method in brief: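 Ratio derived from survival: compound-dosed mice over vehicle-dosed mice, all bearing a transplantable tumor.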

[1] = dose: 100.0 mg/kg/injection, schedule: Q01DX009 (ip), vehicle: Klucel (hydroxypropylcellulose) (HPC)
[2] = dose: 100.0 mg/kg/injection, schedule: Q04DX003 (ip), vehicle: Klucel (hydroxypropylcellulose) (HPC)
[3] = dose: 200.0 mg/kg/injection, schedule: Q01DX009 (ip), vehicle: Klucel (hydroxypropylcellulose) (HPC)
[4] = dose: 200.0 mg/kg/injection, schedule: Q04DX003 (ip), vehicle: Klucel (hydroxypropylcellulose) (HPC)
[5] = dose: 400.0 mg/kg/injection, schedule: Q01DX009 (ip), vehicle: Klucel (hydroxypropylcellulose) (HPC)
[6] = dose: 400.0 mg/kg/injection, schedule: Q04DX003 (ip), vehicle: Klucel (hydroxypropylcellulose) (HPC)

Measured: T/C

OC(c1ccccc1)(c1c2ccccc2cc2ccccc12)C1CCC1 (stereo unspecified)
inactive: [1] 101 % of control | [2] 110 % of control | [3] 102 % of control | [4] 91 % of control | [5] 96 % of control | [6] 110 % of control

Cc1cccc(CSc2nc(N)nc3ncn(C4CC(O)C(CO)O4)c23)n1 (stereo unspecified)
inactive: dose: 100.0 mg/kg/injection, schedule: Q01DX005 (ip), vehicle: saline 101 % of control | dose: 200.0 mg/kg/injection, schedule: Q01DX005 (ip), vehicle: saline 103 % of control

Nc1cccc(C(=O)Nc2cccc(S(=O)(=O)F)c2)c1
inactive: dose: 100.0 mg/kg/injection, schedule: Q01DX001 (ip), vehicle: saline 95 % of control | dose: 200.0 mg/kg/injection, schedule: Q01DX001 (ip), vehicle: saline 98 % of control | dose: 400.0 mg/kg/injection, schedule: Q01DX001 (ip), vehicle: saline 104 % of control

Cc1ccc(Oc2ccc(-c3cc(=O)c4cc(S(=O)(=O)F)ccc4[nH]3)cc2)cc1
inactive: dose: 100.0 mg/kg/injection, schedule: Q04DX003 (ip), vehicle: gum acacia 96 % of control | dose: 200.0 mg/kg/injection, schedule: Q04DX003 (ip), vehicle: gum acacia 88 % of control | dose: 400.0 mg/kg/injection, schedule: Q04DX003 (ip), vehicle: gum acacia 86 % of control

CCN(CC)Cc1cc(O)c(CN(CC)CC)cc1O
inactive: dose: 25.0 mg/kg/injection, schedule: Q01DX001 (ip), vehicle: saline with Tween-80 93 % of control | dose: 50.0 mg/kg/injection, schedule: Q01DX001 (ip), vehicle: saline with Tween-80 103 % of control | dose: 100.0 mg/kg/injection, schedule: Q01DX001 (ip), vehicle: saline with Tween-80 96 % of control

O=Cc1cc(=O)[nH]c(S)[n+]1-c1ccccc1
inactive: dose: 50.0 mg/kg/injection, schedule: Q04DX002 (ip), vehicle: Klucel (hydroxypropylcellulose) (HPC) 96 % of control | dose: 100.0 mg/kg/injection, schedule: Q04DX002 (ip), vehicle: Klucel (hydroxypropylcellulose) (HPC) 96 % of control | dose: 200.0 mg/kg/injection, schedule: Q04DX002 (ip), vehicle: Klucel (hydroxypropylcellulose) (HPC) 101 % of control

O=C(COc1ccc(Cl)cc1Cl)Nc1ccc(Br)cc1
inactive: dose: 100.0 mg/kg/injection, schedule: Q04DX002 (ip), vehicle: gum acacia 103 % of control | dose: 200.0 mg/kg/injection, schedule: Q04DX002 (ip), vehicle: gum acacia 92 % of control | dose: 400.0 mg/kg/injection, schedule: Q04DX002 (ip), vehicle: gum acacia 89 % of control

Cc1cccc(NC(=O)Nc2cccc(Cl)c2)c1C
inactive: [1] 91 % of control | [2] 90 % of control | [3] 100 % of control | [4] 90 % of control | [5] 93 % of control | [6] 89 % of control

COC(=O)C12OCC34C(CC5C(C)=C(O)C(=O)CC5(C)C3C(O)C1O)OC(=O)C(OC(=O)C=C(C)C)C24 (stereo unspecified)
inactive: dose: 0.78 mg/kg/injection, schedule: Q04DX002 (ip), vehicle: saline with Tween-80 94 % of control | dose: 1.56 mg/kg/injection, schedule: Q04DX002 (ip), vehicle: saline with Tween-80 102 % of control | dose: 3.13 mg/kg/injection, schedule: Q04DX002 (ip), vehicle: saline with Tween-80 105 % of control

CCC1(C)NC(C(=O)O)CS1 (stereo unspecified)
inactive: dose: 100.0 mg/kg/injection, schedule: Q04DX003 (ip), vehicle: saline 105 % of control | dose: 200.0 mg/kg/injection, schedule: Q04DX003 (ip), vehicle: saline 107 % of control | dose: 400.0 mg/kg/injection, schedule: Q04DX003 (ip), vehicle: saline 100 % of control

CN(C)c1ccc(C(=O)c2ccc(N(C)C)cc2)cc1
inactive: dose: 100.0 mg/kg/injection, schedule: Q04DX003 (ip), vehicle: saline with Tween-80 93 % of control | dose: 200.0 mg/kg/injection, schedule: Q04DX003 (ip), vehicle: saline with Tween-80 88 % of control | dose: 400.0 mg/kg/injection, schedule: Q04DX003 (ip), vehicle: saline with Tween-80 97 % of control

COC(=O)c1cc2nccc3c4ccccc4n(c1=O)c23
inactive: dose: 100.0 mg/kg/injection, schedule: Q04DX003 (ip), vehicle: alcohol 103 % of control | dose: 200.0 mg/kg/injection, schedule: Q04DX003 (ip), vehicle: alcohol 97 % of control | dose: 400.0 mg/kg/injection, schedule: Q04DX003 (ip), vehicle: alcohol 98 % of control
